ChEMBL document CHEMBL5550119, “Design, synthesis, and evaluation of formylpiperazine analogs of Ferrostatin-1 as novel improved ferroptosis inhibitors” (Bioorg Med Chem, 2024)
≈ marks a conversion by molar mass, not a printed value. Calls of active or inactive are those of the source. The calls are words filed in the database; no cut-off is given here.

Key:
HUVEC [1] = test: Anti-ferroptosis activity in HUVEC cells assessed as inhibition of erastin-induced ferroptosis by measuring lethality suppression incubated for 24 hrs by SRB assay; format: functional, cell-based; conditions: Homo sapiens
[2] = Solubility of compound in PBS buffer at pH 7.4 at 3.13 to 200 uM incubated for 2 hrs by turbidity based assay; format: physicochemical; conditions: dose 3.13-200 µM
[3] = Antioxidant activity assessed as DPPH radical scavenging activity incubated under dark condition for 30 mins by absorbance based analysis; format: functional
[4] = Antioxidant activity assessed as DPPH radical scavenging activity at 50 uM incubated under dark condition for 30 mins by absorbance based analysis relative to control; format: functional
[5] = Metabolic stability in rat liver microsomes assessed as half life at […] incubated for 2 hrs in presence of NADPH by LC-MS/MS analysis; format: ADME, Microsome
[6] = Metabolic stability in human liver microsomes assessed as half life at […] incubated for 2 hrs in presence of NADPH by LC-MS/MS analysis; format: ADME, Microsome
HUVEC [7] = test: Anti-ferroptosis activity in erastin-induced HUVEC cells assessed as increase in GSH level at 10 uM incubated for 24 hrs; format: functional, cell-based; conditions: Homo sapiens
HUVEC [8] = test: Anti-ferroptosis activity in erastin-induced HUVEC cells assessed as reduction in cytoplasmic ferrous ion level at 10 uM incubated for 24 hrs by FerroOrange fluorescent probe based fluorescence microscopic analysis; format: functional, cell-based; conditions: Homo sapiens
HUVEC [9] = test: Anti-ferroptosis activity in erastin-induced HUVEC cells assessed as increase in GPX4 protein level at 10 uM incubated for 24 hrs by Western blot analysis; format: functional, cell-based; conditions: Homo sapiens
HUVEC [10] = test: Anti-ferroptosis activity in erastin-induced HUVEC cells assessed as reduction in ROS level by measuring reduction in DCF fluorescence intensity at 10 uM incubated for 24 hrs by DCFH-DA fluorescent probe based fluorescence microscopic analysis; format: functional, cell-based; conditions: Homo sapiens
HUVEC [11] = test: Anti-ferroptosis activity in erastin-induced HUVEC cells assessed as reduction in mitochondrial impairment by measuring reduction in number of JC-1 monomers at 10 uM incubated for 24 hrs by JC-1 fluorescent probe based fluorescence microscopic analysis; format: functional, cell-based; conditions: Homo sapiens
HUVEC [12] = test: Anti-ferroptosis activity in erastin-induced HUVEC cells assessed as reduction in lipid peroxidation level at 10 uM incubated for 24 hrs; format: functional, cell-based; conditions: Homo sapiens
HUVEC [13] = test: Anti-ferroptosis activity in erastin-induced HUVEC cells assessed as reduction in malondialdehyde level at 10 uM incubated for 24 hrs; format: functional, cell-based; conditions: Homo sapiens
HUVEC [14] = test: Anti-ferroptosis activity in HUVEC cells assessed as inhibition of erastin-induced ferroptosis by measuring lethality suppression at 10 uM incubated for 24 hrs by SRB assay; format: functional, cell-based; conditions: Homo sapiens

SMILES | EC50 (HUVEC [1]) [µM] | solubility kinetic at 2 h [2] [µM] | IC50 [3] [µM] | Activity [4] [%] | half-life [5] [min] | half-life [6] [min] | Activity (HUVEC [7]) | Activity (HUVEC [8]) | Activity (HUVEC [9]) | Activity (HUVEC [10]) | Activity (HUVEC [11]) | Activity (HUVEC [12]) | Activity (HUVEC [13]) | Activity (HUVEC [14])
COc1ccc(Br)c(CN2CCN(C(=O)c3ccc(NC4CCCCC4)c(NCc4ccccc4)c3)CC2)c1 | 0.68 | 20 (≈ 11.8 µg/mL) | 41.3 | 63.8 |  |  |  |  |  |  |  |  |  | 
O=C(c1ccc(NC2CCCCC2)c(NCc2ccccc2)c1)N1CCN(Cc2ccncc2)CC1 | 0.79 | 20 (≈ 9.67 µg/mL) | 43.6 | 55.4 |  |  |  |  |  |  |  |  |  | 
O=C(c1ccc(NC2CCCCC2)c(NCc2ccccc2)c1)N1CCN(Cc2ccc(-c3ccccc3)c(-c3ccccc3)c2)CC1 | 0.61 | 22.2 (≈ 14.1 µg/mL) | 42.9 | 54 |  |  |  |  |  |  |  |  |  | 
CCOC(=O)c1ccc(NC2CCCCC2)c(NCc2ccccc2)c1 |  | 6.2 (≈ 2.19 µg/mL) | 46.8 | 56.4 |  |  |  |  |  |  |  |  |  | 
CCOC(=O)c1ccc(NC2CCCCC2)c(N)c1 |  | > 200 | 54.3 | 52.5 | 18.4 | 16.8 | Active | Active | Active | Active | Active |  |  | 
CS(=O)(=O)c1ccc(CN2CCN(C(=O)c3ccc(NC4CCCCC4)c(NCc4ccccc4)c3)CC2)cc1 | 0.5 | 28.6 (≈ 16 µg/mL) | 28.9 | 54 | 35.7 | 50.2 | Active | Active | Active | Active | Active | Active | Active | 
CN1CCN(C(=O)c2ccc(NC3CCCCC3)c(NCc3ccccc3)c2)CC1 |  |  |  |  |  |  |  |  |  |  |  |  |  | inactive
O=C(c1ccc(NC2CCCCC2)c(NCc2ccccc2)c1)N1CCN(Cc2ccc(F)cc2Br)CC1 | 0.73 | 28.6 (≈ 16.6 µg/mL) | 60.8 | 50.5 |  |  |  |  |  |  |  |  |  | 
